Assay results reported in patent US20080039496A1, “Method of Modulating Neurite Outgrowth by the use of a Galanin-3 Receptor Antagonist” (priority 2006, published 2008).

Legend:
5-HT = conditions: Rowley et al. Br J Pharmacol 2005, P127; cited from earlier work
GalR3 = assay: Western blot analysis of GalR3 expression in NS1 cells; format: cell-based; conditions: 24 hours after treatment
Description: Cultured NS1 cells were homogenized in RIPA buffer (Upstate Biotechnology) containing proteinase inhibitors (Roche). Protein concentrations were determined using the Biorad DC protein assay kit (Biorad). 20 μg of protein-lysate were separated by SDS poly-acrylamide gel electrophoresis (SDS-PAGE) and blotted onto nylon membranes. Western blots were blocked with 5% non-fat dry milk in Tris-buffered saline containing 0.05% Tween 20 (TBS-T) and the primary antibodies applied at 4° Celsius over night. Blots were probed with horseradish peroxidase (HRP) coupled secondary antibodies at room temperature for 1 h, and developed using the SuperSignal® West Pico Chemiluminescent Substrate (Pierce). We used a polyclonal antibody against GalR3 (Alpha Diagnostics). Blots were normalized to β-actin (Sigma).

NS1 cells = assay: Neurite outgrowth assay in NS1 cells (Example 2); format: cell-based; conditions: 3 μM and 10 μM
Description: Neuroscreen 1 (NS1) Cells (Cellomics Inc.) were cultured on collagen type I coated 75 cm^2 plastic flasks (Biocoat, Becton Dickinson) in a humidified incubator at 37° C. in 5% CO2. Cells were cultured in RPMI complete cell culture medium (Cambrex) supplemented with 10% heat-inactivated horse serum (Invitrogen), 5% heat-inactivated fetal bovine serum (Cellgro), and 2 mM L-glutamine (Cambrex). For expansion, the cells were trypsinized and split at 80% confluence. The cell culture media was changed every 2 to 3 days.
NS1 cells were stimulated with nerve growth factor to induce differentiation into a neuronal phenotype. NS1 cells were harvested as if they were being passaged and then counted using a Coulter counter (Becton Dickinson Coulter Z1). Cells were seeded in 96-well collagen I coated plates at a density of 2000 cells per well in volume of 200 μl. RPMI media was supplemented with 200 ng/ml nerve growth factor (NGFβ, Sigma). NS1 cells were incubated for 72 hours to allow differentiation to a neuronal phenotype. NGFβ was then diluted to 50 ng/ml and the cells were treated with siRNA or HT-2157, respectively.
(§1) Neurite outgrowth assays were performed using the Cellomics Arrayscan II Vti HCS scanner. Cells were stained using the HitKit™ HCS reagent kit (Cellomics) according to the manufactures specifications. The assay is based on immunofluorescence using an antibody that has been validated to specifically label both neurites and neuronal cell bodies. Briefly, cells were fixed in 3.7% formaldehyde and nuclei stained with Hoechst dye. Cells were then washed in neurite outgrowth buffer and neurites stained with Cellomics' proprietary primary antibody for neurite outgrowth high content screening. After 1 hour of incubation with the primary antibody, the cells were washed again and then incubated with fluorescently labeled secondary antibody solution for 1 hour. Antibody-stained 96-well plates were store at 4° C. in the dark until scanning. Plates were scanned using Cellomics ArrayScan II Vti HCS scanner. The neurite outgrowth assay uses two channels to carry out the scan. Channel 1 detects the Hoechst Dye and is used by the software to identify cells and for automated focusing. Channel 2 detects the FITC fluorescence of the secondary antibody and is used by the software to calculate all data generated in reference to neurites.

BDNF = assay: qPCR analysis of BDNF mRNA in cultured mouse hippocampal neurons; format: cell-based; conditions: 10 μM, vs vehicle
Description: (§2) C57B1/6 or CD1 mouse embryonic (E17.5) hippocampal neurons were purchased from QBM Cell Science (University of Ottawa, Ontario, Canada). Neurons were cultured on poly-D-lysine coated 96 or 24 well plates in serum free Neurobasal medium supplemented with 2% B27, 500 μM L-glutamine, and 1 mM pyruvate. Cells were plated at a density of 20,000 per well on 96 well plates (for neurite outgrowth assays), and at 100,000 per well on […] (for qPCR analysis). For neurite outgrowth assays, neurons were cultured for 2 days and then stimulated for 24 hours. For gene-expression assays, neurons were grown for 8 days and then stimulated with HT-2157 or Vehicle.
(§3) RNA was isolated from cultured neurons at the indicated timepoint after HT-2157 treatment. Per well, one RNA preparation was performed using the QIAgen RNeasy kit (Qiagen) according to the manufacturer's specifications. cDNA was generated using TaqMan Reverse transcriptase kit (Applied Biosystems). 2 real-time PCR reactions per RNA/cDNA replication were performed using the ABI prism and SDS 2.1 software. ABI assays on demand (Applied Biosystems) were used to test the mRNA levels of BDNF, NGFβ, and Hes5. The average CT value for each cDNA sample was determined. Data was then normalized to TATA binding protein (TBP) and ΔCT values were determined. mRNA levels were normalized to a vehicle (0.2% DMSO) treated control group.

5-HT transmission = conditions: Rowley et al. Br J Pharmacol 2005, P125; cited from earlier work
[1] = test system: PC12 sub-clone, Neuroscreen-1 (NS-1) cells; assay: Neurite outgrowth assay in NS-1 cells (Example 1); format: cell-based; conditions: NS-1 cells with 200 ng/mL NGF, fixed 24 hr post treatment, various concentrations; dose-dependent
Description: PC12 sub-clone, Neuroscreen-1 (NS-1) cells were plated into collagen I-coated 96 well plate (BD BioCoat) at 5,000 cells per well in RPMI complete medium with 200 ng/mL NGF. 48 hr later NS-1 cells were treated with HT-2157 at various concentrations and were subsequently fixed 24 hr post treatment.
(§4) Following fixation, Cellomics's Neurite Outgrowth reagent kit was used to label cells by a primary antibody specific for neurons. The cell nuclei were labeled by Hoechst 33342. Fluorescently labeled cells were then imaged and analyzed using Cellomics's Neurite Outgrowth and Extended Neurite Outgrowth Bioapplications on the ArrayScan HCS Reader. Images for quantitative HCS analysis were collected on the ArrayScan HCS Reader using a 10× or a 20× microscope objective.

Hes5 [2] = assay: qPCR analysis of Hes5 mRNA in cultured mouse hippocampal neurons; format: cell-based; parameters: dose or concentration left out as unconfirmed; conditions: vs vehicle
Description: as §2, §3

NGFβ = assay: qPCR analysis of NGFβ mRNA in cultured mouse hippocampal neurons; format: cell-based; conditions: 10 μM, vs vehicle
Description: as §2, §3

Hes5 [3] = assay: qPCR analysis of Hes5 expression in NS-1 cells; format: cell-based
Description: NS-1 cells were plated into collagen I-coated 6 well plate (BD BioCoat) at 150,000 cells per well. 48 hr post NGF treatment at 200 ng/mL NS-1 cells were treated with HT-2157 for 2 hr, 4 hr or 24 hr at concentrations as indicated followed by RNA isolation using Ambion's RNAqueous-4PCR kit. Reverse transcription reactions were performed with Taqman reverse transcription reagents (Applied Biosystems). qPCR was performed on a 7900 real-time PCR machine using Optical 96 well reaction plates (Applied Biosystems). Expression levels were normalized to mouse TBP transcript levels.

[4] = test system: cryopreserved mouse hippocampal neurons; assay: Neurite outgrowth assay in cryopreserved mouse hippocampal neurons (Example 1); format: cell-based; conditions: fixed 48 hr post treatment, various concentrations
Description: The cryopreserved mouse hippocampal neurons were plated into poly-L-lysine-coated 96 well plate (BD BioCoat) at 35,000 cells per well in Neurobasal/B27 medium (Invitrogen). 24 hr later the neurons were treated with HT-2157 at various concentrations and were subsequently fixed 48 hr post treatment.
as §4

[5] = test system: cultured mouse hippocampal neurons; assay: Neurite outgrowth assay in cultured mouse hippocampal neurons (Example 2); format: cell-based; conditions: 100 ng/ml for 24 hours
Description: as §2, §1

Molecule | extracellular levels of 5-HT in various brain regions (5-HT) | Expression of GalR3 (GalR3) | average neurite length per cell (NS1 cells) | number of neurite branch points per cell (NS1 cells) | number of neurites per cell (neurite count) (NS1 cells) | total neurite length per cell (NS1 cells) | BDNF mRNA levels (BDNF) | inhibitory effect of Galanin on 5-HT transmission (5-HT transmission) | neurite branch point [1] | neurite count [1] | neurite length [1] | Hes5 mRNA levels (Hes5 [2]) | NGFβ mRNA levels (NGFβ) | mRNA levels of Hes5 (Hes5 [3]; NS1 cells, 2 hours and 4 hours after treatment with 3 or 10 μM, compared to vehicle) | Hes5 mRNA (Hes5 [3]; NS1 cells, 24 hours after treatment) | Hes5 expression (Hes5 [3]; NS-1 cells, treatment at 2 hr and 4 hr, time- and dose-dependent) | neurite length [4] | branch points [5] | neurite length [5] | number of neurites per cell [5]
O=C1C(=Nc2cccc(C(F)(F)F)c2)c2ccccc2N1c1ccccc1 [HT-2157] | increase | not affected | increase | increase | increase | increase | significantly increased | antagonize | increase | increase | increase | significantly reduced | significantly increased | reduced | returned to baseline levels | down-regulated | significantly increased | – | – | –
NGFβ: nerve growth factor β, neurotrophin (Sigma) | – | – | – | – | – | – | – | – | – | – | – | – | – | – | – | – | – | increased | increased | increased
